Experimental data as given in ChEMBL document CHEMBL1759920, “C20-trifluoro-5-oxo-ETE: a metabolically stable 5-oxo-ETE derivative” (Bioorg Med Chem Lett, 2011).
pEC50, pIC50: −log10 of the molar value. Active and inactive are the calls of the source. The rule behind the calls is not given here.

Tests used:
Neutrophil [1] = test: Induction of intracellular calcium level in indo-1-labeled human neutrophils cells assessed as calcium mobilization relative to 5-oxo-ETE; type: functional
Oxoeicosanoid receptor 1 [2] = biological target: T1, Oxoeicosanoid receptor 1 (Homo sapiens, UniProt Q8TDS5); test: Desensitization of 5-oxo-ETE receptor in indo-1-labeled human neutrophils assessed as inhibition of 5-oxo-ETE-induced calcium mobilization; type: functional
T1 sequence (Q8TDS5 whole entry): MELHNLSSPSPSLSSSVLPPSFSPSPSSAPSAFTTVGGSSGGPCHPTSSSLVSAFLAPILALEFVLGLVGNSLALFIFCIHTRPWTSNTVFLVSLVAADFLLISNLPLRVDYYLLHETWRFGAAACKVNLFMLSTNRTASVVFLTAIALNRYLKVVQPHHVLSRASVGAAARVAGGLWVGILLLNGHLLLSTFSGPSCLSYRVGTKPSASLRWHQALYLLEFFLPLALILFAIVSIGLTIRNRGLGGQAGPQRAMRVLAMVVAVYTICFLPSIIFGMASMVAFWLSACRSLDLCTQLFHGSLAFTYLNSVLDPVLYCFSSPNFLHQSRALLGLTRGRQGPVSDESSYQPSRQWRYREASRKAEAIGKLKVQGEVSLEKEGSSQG

Oxoeicosanoid receptor 1 [3] = biological target: T1, Oxoeicosanoid receptor 1; test: Agonist activity at 5-oxo-ETE receptor in indo-1-labeled human neutrophils assessed as stimulation intracellular calcium level at 100 nM followed by 5-oxo-ETE addition at 2.5 mins in presence of digitonin added at 3.5 mins; type: functional, cell-based
Neutrophil [4] = test: Induction of intracellular calcium level in indo-1-labeled human neutrophils cells assessed as calcium mobilization; type: functional, cell-based

| SMILES | Activity (Neutrophil [1]) | pIC50 (Oxoeicosanoid receptor 1 [2]) | Activity (Oxoeicosanoid receptor 1 [3]) | pEC50 (Neutrophil [4]) |
| --- | --- | --- | --- | --- |
| O=C(O)CCCC(=O)/C=C/C=C\C/C=C\C/C=C\CCCCC(F)(F)F | 50% | 8.12 | Active |  |
| CCCCC/C=C\C/C=C\C/C=C\C=C\C(=O)CCCC(=O)O [5-OXO-ETE] |  | 8.52 |  | 8.40 |
